The values below are quoted from earlier work in patent US20050107870A1, “Medical device with multiple coating layers” (priority 2003, published 2005).

Counter-ions that a name gives are not always drawn.

The test system of one data set is cancer cells. The settings on record: exposed to low-level electromagnetic fields present in some North American homes.
For data set [1] the following is noted: hydrophilic magnetically responsive microspheres.

With `CC/C(=C(\c1ccccc1)c1ccc(OCCN(C)C)cc1)c1ccccc1` [tamoxifen], in the data set with cancer cells, the “ability to halt the proliferation of cancer cells” value was “lost its ability to halt the proliferation of cancer cells”. With `COc1cccc2c1C(=O)c1c(O)c3c(c(O)c1C2=O)C[C@@](O)(C(=O)CO)C[C@@H]3O[C@H]1C[C@H](N)[C@H](O)[C@H](C)O1` [adriamycin, doxorubicin hydrochloride], in data set [1], the “incorporated concentration of therapeutic agent in microspheres” value was “up to 50 wt %”. On to `COc1ccc2[nH]cc(CCNC(C)=O)c2c1` [melatonin], for which the “growth of breast cancer cells” value with breast cancer cells (cells exposed to 2 milligauss magnetic fields) is given as “inhibit the growth of breast cancer cells”. In addition, the “growth-inhibiting activity on breast cancer cells” value in the data set on breast cancer cells (cells in a 12 milliGauss field) is listed as “essentially reased”.
